{"source": "patent US20100003217A1", "about": "“Compounds and Pharmaceutical Compositions for the Treatment of Viral Infections” (priority 2008, published 2010)", "key": {"[1]": {"system": "human primary hepatocytes", "experiment": "Metabolic disposition of [^14C]-Compound 1 and [^14C]-2′-C-methyl guanosine in human primary hepatocytes (incubation medium, cellular extracts, nucleotide levels)", "format": "in vitro ADME", "settings": "human hepatocytes Hu775", "experimental": "Primary hepatocytes: Freshly isolated cells from animal and human liver were obtained in suspension on ice. Cells were pelleted by centrifugation at 70-75×g (rat) or 95-90×g (monkey and human) and resuspended at 0.8 million cells per mL of platting medium (William's E supplemented with 5% FBS, 0.5% penicillin-streptomycin, 1% L-glutamine, 4 μg/mL insulin and 1 μM dexamethasone). Multi-well collagen I-coated plates (rat tail collagen type I; 12- or 6-well) were then seeded by addition of 1 mL (12-well; 0.8 million cells/well) or 2 mL (6-well; 1.6 million cells/well) of cell suspension. The plates were gently shaken to evenly distribute the cells and placed in an incubator at 37° C. for approximately 4 to 6 hours to allow cells to attach. Once cells were attached, the platting medium was removed and replaced with hepatocyte culture medium (William's E supplemented with penicillin-streptomycin, 1% L-glutamine, 1% insulin-transferrin-selenium and 0.1 μM dexamethasone). Cells were left overnight in an incubator at 37° C. to acclimatize to culture and the medium.\nHepatocyte incubations with radiolabeled Compound 1 and 2′-C-methyl guanosine, both labeled in the C-8 position of the guanine moiety, were conducted at a final volume of 2.0 mL hepatocyte culture medium/well ([…]). Culture medium from overnight incubation of cells was removed and replaced with fresh medium, pre-warmed to 37° C., containing 1 or 10 μM [^14C]-Compound 1 ([…]) or [^14C]-2′-C-methyl guanosine (127 DPM/μmol) from a stock solution in DMSO (final DMSO concentration was 0.1%) or 50% ethanol (final ethanol concentration was 0.2%). After 1, 4, 8 and 24 hours, 0.5-1.0 mL of incubation medium was removed and stored at −20° C. until analysis (described below). The remaining medium was discarded and cell monolayers were carefully washed two times with ice-cold PBS. Following the last wash, all PBS was carefully removed and 1.0 mL of extraction solution (ice-cold 70% methanol) added. Cells were scrapped off and suspended in the extraction solution, transferred to 2 mL polypropylene microfuge tubes and intracellular contents extracted overnight at −20° C.\nPreliminary identification of putative metabolites was conducted by comparing the retention time of observed metabolites in incubation medium and cellular extracts with retention times obtained with chemically synthesized standards using the chromatography conditions described below. Further identification of 2′-C-methyl guanosine nucleotides (mono-, di- and triphosphate) was carried out by incubating cellular extract samples with alkaline phosphatase (10 units for 60 min at 37° C.) and comparing the HPLC retention times of the resulting nucleosides with that of authentic 2′-C-methyl guanosine.\nCellular extracts were prepared by centrifugation at 16,000 RCF using an Eppendorf microcentrifuge (Eppendorf, Model 5415D) for 10 min to remove cellular debris. An aliquot of 5-10 μL of the supernatant was added to 5 mL of EcoLite™ (MP, Irvine, Calif.) liquid scintillation cocktail and radioactivity measured by liquid scintillation counting (LSC) using a Beckman Coulter LS6500 multipurpose liquid scintillation counter (Beckman Instruments, Fullerton, Calif.). The remaining sample was then dried using a Labconco refrigerated centrivap concentrator (Labconco, Kansas City, Mo.). Dry extracts were reconstituted in 120 μL of HPLC-grade water and centrifuged at 16,000 RCF using an Eppendorf microcentrifuge for 10 min. Prior to HPLC analysis (described below), radioactivity of the concentrated extracts was measured by LSC using 5 μL aliquots. Extraction recovery was then determined by comparing total radioactivity in extracts before and after drying. The remaining extract was then analyzed by HPLC with online radioactivity detection using a Flow Scintillation Analyzer Radiomatic™ 515TR. Radioactivity in the separated components was quantified by integrating the peaks using Flo-One™ Software (Perkin Elmer Life Sciences). […]"}, "[2]": {"system": "monkey primary hepatocytes", "experiment": "Metabolic disposition of [^14C]-Compound 1 and [^14C]-2′-C-methyl guanosine in monkey primary hepatocytes (incubation medium, cellular extracts, nucleotide levels)", "format": "in vitro ADME, Cynomolgus monkey", "how_it_was_run": "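Rat, monkey or human primary hepatocytes on collagen I plates (1.6 million cells/mL) were incubated at 37° C with 1 or 10 μM C-8 [^14C]-labelled compound or 2′-C-methyl guanosine for 1, 4, 8 and 24 hours. Medium and 70% methanol cell extracts were analysed by LSC and radio-HPLC. Nucleotides were identified by alkaline phosphatase treatment and retention-time matching to standards.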"}, "[3]": {"settings": "monkey hepatocytes (Cy234), 10 μM [^14C]-Compound 1, 4 h"}, "[4]": {"settings": "monkey hepatocytes Cy230, 10 μM [^14C]-2′-C-methyl guanosine, 1 h"}, "[5]": {"settings": "monkey hepatocytes Cy230, 10 μM [^14C]-2′-C-methyl guanosine, 8 h"}, "[6]": {"settings": "monkey hepatocytes Cy230, 10 μM [^14C]-2′-C-methyl guanosine, 24 h"}, "[7]": {"settings": "monkey hepatocytes Cy234, 10 μM [^14C]-2′-C-methyl guanosine, 1 h"}, "[8]": {"settings": "monkey hepatocytes Cy234, 10 μM [^14C]-2′-C-methyl guanosine, 4 h"}, "[9]": {"settings": "monkey hepatocytes Cy234, 10 μM [^14C]-2′-C-methyl guanosine, 8 h"}, "[10]": {"settings": "monkey hepatocytes Cy234, 10 μM [^14C]-2′-C-methyl guanosine, 24 h"}}, "note": "Where “and” joins values, the source holds several entries; their conditions need not be identical. Equal values may be shown once."}
{"smiles": "C[C@@]1(O)[C@H](O)[C@@H](COP(=O)(O)OP(=O)(O)O)O[C@H]1n1cnc2c(=O)[nH]c(N)nc21", "note": "[Compound 6, [(2R)-2-methyl-β-D-ribofuranosyl]guanine 5′-diphosphate]", "values": [{"measurement": "2′-C-methyl guanosine nucleotide levels in cellular extracts", "setting": "[1]; 10 μM [^14C]-2′-C-methyl guanosine, 8 h", "result": 15.0, "unit": "pmol/million cells"}, {"measurement": "2′-C-methyl guanosine nucleotide levels in cellular extracts", "setting": "[1]; 10 μM [^14C]-2′-C-methyl guanosine, 24 h", "result": 50.0, "unit": "pmol/million cells"}, {"measurement": "2′-C-methyl guanosine nucleotide levels in cellular extracts", "setting": "[1]; 10 μM [^14C]-Compound 1, 0 h", "result": 0, "unit": "pmol/million cells"}, {"measurement": "2′-C-methyl guanosine nucleotide levels in cellular extracts", "setting": "[1]; 10 μM [^14C]-Compound 1, 1 h", "result": 7.10, "unit": "pmol/million cells"}, {"measurement": "2′-C-methyl guanosine nucleotide levels in cellular extracts", "setting": "[1]; 10 μM [^14C]-Compound 1, 4 h", "result": 38.4, "unit": "pmol/million cells"}, {"measurement": "2′-C-methyl guanosine nucleotide levels in cellular extracts", "setting": "[1]; 10 μM [^14C]-Compound 1, 8 h", "result": 55, "unit": "pmol/million cells"}, {"measurement": "2′-C-methyl guanosine nucleotide levels in cellular extracts", "setting": "[1]; 10 μM [^14C]-Compound 1, 24 h", "result": 161, "unit": "pmol/million cells"}, {"measurement": "metabolites observed in cellular extracts (% of total radioactivity)", "setting": "[2]; monkey hepatocytes (Cy230, Cy234), 10 μM [^14C]-Compound 1, 1 h", "result": "9.25% and 9.65%"}, {"measurement": "metabolites observed in cellular extracts (% of total radioactivity)", "setting": "[2]; monkey hepatocytes (Cy230, Cy234), 10 μM [^14C]-Compound 1, 8 h", "result": "13.8% and 14.9%"}, {"measurement": "metabolites observed in cellular extracts (% of total radioactivity)", "setting": "[2]; monkey hepatocytes (Cy230, Cy234), 10 μM [^14C]-Compound 1, 24 h", "result": "18.5% and 16.0%"}, {"measurement": "2′-C-methyl guanosine nucleotide levels in cellular extracts", "setting": "[2]; [3]", "result": 44.5, "unit": "pmol/million cells"}, {"measurement": "metabolites observed in cellular extracts (% of total radioactivity)", "setting": "[2]; [3]", "result": 17.1, "unit": "%"}, {"measurement": "2′-C-methyl guanosine nucleotide levels in cellular extracts", "setting": "[2]; monkey hepatocytes Cy230, 10 μM [^14C]-2′-C-methyl guanosine, 0 h", "result": 0, "unit": "pmol/million cells"}, {"measurement": "2′-C-methyl guanosine nucleotide levels in cellular extracts", "setting": "[2]; [4]", "result": "BLD (BLD = below limit of detection (0.02 pmol/million cells))"}, {"measurement": "Major metabolites observed in cellular extracts (% of total radioactivity)", "setting": "[2]; [4]", "result": "BLD (BLD = below limit of detection (30 DPM))"}, {"measurement": "2′-C-methyl guanosine nucleotide levels in cellular extracts", "setting": "[2]; [5]", "result": 2.07, "unit": "pmol/million cells"}, {"measurement": "Major metabolites observed in cellular extracts (% of total radioactivity)", "setting": "[2]; [5]", "result": "2.82 % of total radioactivity"}, {"measurement": "2′-C-methyl guanosine nucleotide levels in cellular extracts", "setting": "[2]; [6]", "result": 2.16, "unit": "pmol/million cells"}, {"measurement": "Major metabolites observed in cellular extracts (% of total radioactivity)", "setting": "[2]; [6]", "result": "8.41 % of total radioactivity"}, {"measurement": "2′-C-methyl guanosine nucleotide levels in cellular extracts", "setting": "[2]; monkey hepatocytes Cy230, 10 μM [^14C]-Compound 1, 0 h", "result": 0, "unit": "pmol/million cells"}, {"measurement": "2′-C-methyl guanosine nucleotide levels in cellular extracts", "setting": "[2]; monkey hepatocytes Cy230, 10 μM [^14C]-Compound 1, 1 h", "result": 26.3, "unit": "pmol/million cells"}, {"measurement": "2′-C-methyl guanosine nucleotide levels in cellular extracts", "setting": "[2]; monkey hepatocytes Cy230, 10 μM [^14C]-Compound 1, 8 h", "result": 153, "unit": "pmol/million cells"}, {"measurement": "2′-C-methyl guanosine nucleotide levels in cellular extracts", "setting": "[2]; monkey hepatocytes Cy230, 10 μM [^14C]-Compound 1, 24 h", "result": 88.4, "unit": "pmol/million cells"}, {"measurement": "2′-C-methyl guanosine nucleotide levels in cellular extracts", "setting": "[2]; monkey hepatocytes Cy234, 10 μM [^14C]-2′-C-methyl guanosine, 0 h", "result": 0, "unit": "pmol/million cells"}, {"measurement": "2′-C-methyl guanosine nucleotide levels in cellular extracts", "setting": "[2]; [7]", "result": 0.95, "unit": "pmol/million cells"}, {"measurement": "Major metabolites observed in cellular extracts (% of total radioactivity)", "setting": "[2]; [7]", "result": "2.19 % of total radioactivity"}, {"measurement": "2′-C-methyl guanosine nucleotide levels in cellular extracts", "setting": "[2]; [8]", "result": 5.30, "unit": "pmol/million cells"}, {"measurement": "Major metabolites observed in cellular extracts (% of total radioactivity)", "setting": "[2]; [8]", "result": "6.51 % of total radioactivity"}, {"measurement": "2′-C-methyl guanosine nucleotide levels in cellular extracts", "setting": "[2]; [9]", "result": 7.00, "unit": "pmol/million cells"}, {"measurement": "Major metabolites observed in cellular extracts (% of total radioactivity)", "setting": "[2]; [9]", "result": "7.90 % of total radioactivity"}, {"measurement": "2′-C-methyl guanosine nucleotide levels in cellular extracts", "setting": "[2]; [10]", "result": 15.0, "unit": "pmol/million cells"}, {"measurement": "Major metabolites observed in cellular extracts (% of total radioactivity)", "setting": "[2]; [10]", "result": "14.1 % of total radioactivity"}, {"measurement": "2′-C-methyl guanosine nucleotide levels in cellular extracts", "setting": "[2]; monkey hepatocytes Cy234, 10 μM [^14C]-Compound 1, 0 h", "result": 0, "unit": "pmol/million cells"}, {"measurement": "2′-C-methyl guanosine nucleotide levels in cellular extracts", "setting": "[2]; monkey hepatocytes Cy234, 10 μM [^14C]-Compound 1, 1 h", "result": 6.10, "unit": "pmol/million cells"}, {"measurement": "2′-C-methyl guanosine nucleotide levels in cellular extracts", "setting": "[2]; monkey hepatocytes Cy234, 10 μM [^14C]-Compound 1, 8 h", "result": 91.0, "unit": "pmol/million cells"}, {"measurement": "2′-C-methyl guanosine nucleotide levels in cellular extracts", "setting": "[2]; monkey hepatocytes Cy234, 10 μM [^14C]-Compound 1, 24 h", "result": 111, "unit": "pmol/million cells"}]}
